Laboratory results: publication PMC7933434, “Entropy-driven binding of gut bacterial β-glucuronidase inhibitors ameliorates irinotecan-induced toxicity” (Communications Biology, 2021)
Where “and” joins values, the source holds several entries; their conditions need not be identical. Equal values may be shown once.

What was measured:
[1] = biological target: LgGUS (Lactobacillus gasseri GUS) (Lactobacillus gasseri, UniProt Q9AHJ8); assay: GUS inhibition assay, hydrolysis of 4-methylumbelliferyl-β-glucuronide, LgGUS; format: biochemical; parameters: GUS activity (hydrolysis rate of MUG) / 1/v: unit not given here; conditions: for Ki: LgGUS
Sequence of LgGUS (Lactobacillus gasseri GUS) (Q9AHJ8 1-598): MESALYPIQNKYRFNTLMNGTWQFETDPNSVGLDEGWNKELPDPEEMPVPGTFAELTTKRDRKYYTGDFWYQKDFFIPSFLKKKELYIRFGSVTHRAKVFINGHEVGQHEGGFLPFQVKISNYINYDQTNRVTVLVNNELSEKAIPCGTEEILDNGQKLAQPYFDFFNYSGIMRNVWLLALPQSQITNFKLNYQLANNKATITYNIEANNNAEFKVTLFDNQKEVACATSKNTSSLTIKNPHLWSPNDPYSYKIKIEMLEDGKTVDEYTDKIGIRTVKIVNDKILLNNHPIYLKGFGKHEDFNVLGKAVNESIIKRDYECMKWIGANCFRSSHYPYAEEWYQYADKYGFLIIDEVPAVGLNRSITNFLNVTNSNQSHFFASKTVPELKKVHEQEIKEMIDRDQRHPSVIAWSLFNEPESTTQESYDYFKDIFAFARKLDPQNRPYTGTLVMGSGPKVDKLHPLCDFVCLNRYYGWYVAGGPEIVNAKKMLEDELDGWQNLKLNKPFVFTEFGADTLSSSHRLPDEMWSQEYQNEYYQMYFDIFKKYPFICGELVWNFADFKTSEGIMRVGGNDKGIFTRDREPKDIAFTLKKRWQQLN

[2] = biological target: EcGUS (Escherichia coli, UniProt P05804); assay: Isothermal titration calorimetry, EcGUS; format: binding; conditions: for Kd / ΔG / —TΔS / ΔH: 298 K; for entropy contribution to binding: sign (positive = favourable)
Sequence of EcGUS (P05804 whole entry): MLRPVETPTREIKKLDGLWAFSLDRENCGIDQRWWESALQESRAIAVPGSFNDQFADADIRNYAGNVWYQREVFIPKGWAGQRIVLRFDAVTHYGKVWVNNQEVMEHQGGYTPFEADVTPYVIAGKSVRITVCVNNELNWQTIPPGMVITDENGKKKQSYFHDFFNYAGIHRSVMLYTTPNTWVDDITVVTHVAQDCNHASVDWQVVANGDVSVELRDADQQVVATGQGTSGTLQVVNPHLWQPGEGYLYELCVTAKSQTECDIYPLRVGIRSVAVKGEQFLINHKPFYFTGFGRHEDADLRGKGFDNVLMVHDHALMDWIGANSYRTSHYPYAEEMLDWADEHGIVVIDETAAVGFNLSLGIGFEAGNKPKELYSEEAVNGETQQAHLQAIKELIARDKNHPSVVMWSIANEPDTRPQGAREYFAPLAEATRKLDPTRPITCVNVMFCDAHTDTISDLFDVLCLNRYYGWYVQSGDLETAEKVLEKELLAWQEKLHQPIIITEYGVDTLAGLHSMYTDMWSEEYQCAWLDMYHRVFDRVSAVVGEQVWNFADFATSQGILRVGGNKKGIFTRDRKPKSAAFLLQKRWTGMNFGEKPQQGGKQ

[3] = parameters: method as in PMID 18537837; conditions: endocyclic amine; cited from earlier work
[4] = 50 mM sodium acetate pH 4.5, 37 °C
[5] = EcGUS, Tris buffer (250 mM NaCl, 20 mM Tris, pH 8.0)
[6] = EcGUS, phosphate buffer (250 mM NaCl, 20 mM KH2PO4, 100 mM Na2HPO4, pH 8.0)
[7] = [Inhibitor 2] = 10 μM, [MUG] 0.0375 mM
[8] = [Inhibitor 2] = 10 μM, [MUG] 0.075 mM
[9] = [Inhibitor 2] = 10 μM, [MUG] 0.15 mM
[10] = [Inhibitor 2] = 10 μM, [MUG] 0.3 mM
[11] = [Inhibitor 2] = 20 μM, [MUG] 0.0375 mM
[12] = [Inhibitor 2] = 20 μM, [MUG] 0.075 mM
[13] = [Inhibitor 2] = 20 μM, [MUG] 0.15 mM
[14] = [Inhibitor 2] = 20 μM, [MUG] 0.3 mM
[15] = [Inhibitor 2] = 40 μM, [MUG] 0.0375 mM
[16] = [Inhibitor 2] = 40 μM, [MUG] 0.075 mM
[17] = [Inhibitor 2] = 40 μM, [MUG] 0.15 mM
[18] = [Inhibitor 2] = 40 μM, [MUG] 0.3 mM
[19] = [Inhibitor 2] = 80 μM, [MUG] 0.0375 mM
[20] = [Inhibitor 2] = 80 μM, [MUG] 0.075 mM
[21] = [Inhibitor 2] = 80 μM, [MUG] 0.15 mM
[22] = [Inhibitor 2] = 80 μM, [MUG] 0.3 mM
[23] = [Inhibitor 4] = 0.1 μM, [MUG] 0.0375 mM
[24] = [Inhibitor 4] = 0.1 μM, [MUG] 0.05 mM
[25] = [Inhibitor 4] = 0.1 μM, [MUG] 0.075 mM
[26] = [Inhibitor 4] = 0.1 μM, [MUG] 0.15 mM
[27] = [Inhibitor 4] = 0.2 μM, [MUG] 0.0375 mM
[28] = [Inhibitor 4] = 0.2 μM, [MUG] 0.05 mM
[29] = [Inhibitor 4] = 0.2 μM, [MUG] 0.075 mM
[30] = [Inhibitor 4] = 0.2 μM, [MUG] 0.15 mM
[31] = [Inhibitor 4] = 0.4 μM, [MUG] 0.0375 mM
[32] = [Inhibitor 4] = 0.4 μM, [MUG] 0.05 mM
[33] = [Inhibitor 4] = 0.4 μM, [MUG] 0.075 mM
[34] = [Inhibitor 4] = 0.4 μM, [MUG] 0.15 mM
[35] = [Inhibitor 4] = 0.6 μM, [MUG] 0.0375 mM
[36] = [Inhibitor 4] = 0.6 μM, [MUG] 0.05 mM
[37] = [Inhibitor 4] = 0.6 μM, [MUG] 0.075 mM
[38] = [Inhibitor 4] = 0.6 μM, [MUG] 0.15 mM

With `O=C(O)[C@H]1CNC[C@@H](O)[C@@H]1O` [Inhibitor 1, Uronic isofagomine] the Ki [1, 4] was 0.11 ± 0.033 µM, the Kd [2, 5] was 0.02 ± 0.002 µM and the ΔG [2, 5] was “–10.63 ± 0.075 kcal/mol”. The “—TΔS” value [2, 5] was “–1.51 ± 0.20 kcal/mol”, the Kd [2, 6] was 0.06 ± 0.001 µM and the ΔG [2, 6] was “–9.89 ± 0.01 kcal/mol”. The ΔH [2, 6] was “–9.48 ± 0.29 kcal/mol”, the “—TΔS” value [2, 6] was “–0.41 ± 0.30 kcal/mol” and the pKa [3] was 8.0.

For `CCC[C@@H]1NC[C@@H](O)[C@H](O)[C@H]1C(=O)O` [Inhibitor 2, C6-propyl UIFG], the Ki [1, 4] was 18.8 ± 3.92 µM, the 1/v [1, 7] was 0.2959 and 0.2974 and 0.2686 and the “GUS activity (hydrolysis rate of MUG)” value [1, 7] was 4192.53 and 4171.53 and 4614.39. The 1/v [1, 8] was 0.2107 and 0.1906 and 0.2077, the “GUS activity (hydrolysis rate of MUG)” value [1, 8] was 5869.97 and 6487.03 and 5954.69 and the 1/v [1, 9] was 0.1628 and 0.149 and 0.1679. The “GUS activity (hydrolysis rate of MUG)” value [1, 9] was 7584.59 and 8286.19 and 7358.86, the 1/v [1, 10] was 0.1383 and 0.1264 and 0.1356 and the “GUS activity (hydrolysis rate of MUG)” value [1, 10] was 8920.98 and 9760.49 and 9099.17. The 1/v [1, 11] was 0.3501 and 0.314 and 0.3449, the “GUS activity (hydrolysis rate of MUG)” value [1, 11] was 3549.69 and 3952.79 and 3602.4 and the 1/v [1, 12] was 0.2306 and 0.2185 and 0.2316. For the same molecule, the “GUS activity (hydrolysis rate of MUG)” value [1, 12] was 5367.33 and 5663.13 and 5345.77, the 1/v [1, 13] was 0.1785 and 0.1636 and 0.1746 and the “GUS activity (hydrolysis rate of MUG)” value [1, 13] was 6921.34 and 7548.25 and 7076.25. The 1/v [1, 14] was 0.1408 and 0.1323 and 0.1394, the “GUS activity (hydrolysis rate of MUG)” value [1, 14] was 8767.09 and 9326.73 and 8851.1 and the 1/v [1, 15] was 0.4229 and 0.3884 and 0.4078. For the same molecule, the “GUS activity (hydrolysis rate of MUG)” value [1, 15] was 2945.2 and 3203.76 and 3052.97, the 1/v [1, 16] was 0.2757 and 0.2635 and 0.2787 and the “GUS activity (hydrolysis rate of MUG)” value [1, 16] was 4496.55 and 4702.63 and 4448.51. For the same molecule, the 1/v [1, 17] was 0.1987 and 0.186 and 0.1977, the “GUS activity (hydrolysis rate of MUG)” value [1, 17] was 6224 and 6644.75 and 6252.92 and the 1/v [1, 18] was 0.1513 and 0.1407 and 0.1527. The “GUS activity (hydrolysis rate of MUG)” value [1, 18] was 8157.58 and 8770.43 and 8083.43, the 1/v [1, 19] was 0.6318 and 0.5917 and 0.6372 and the “GUS activity (hydrolysis rate of MUG)” value [1, 19] was 1984.8 and 2116.68 and 1968.46. The 1/v [1, 20] was 0.3742 and 0.3532 and 0.3763, the “GUS activity (hydrolysis rate of MUG)” value [1, 20] was 3323.3 and 3518.37 and 3305.44 and the 1/v [1, 21] was 0.2434 and 0.2308 and 0.2421. For the same molecule, the “GUS activity (hydrolysis rate of MUG)” value [1, 21] was 5087.86 and 5362.93 and 5115.03, the 1/v [1, 22] was 0.1723 and 0.1599 and 0.1688 and the “GUS activity (hydrolysis rate of MUG)” value [1, 22] was 7171.31 and 7724.06 and 7316.31. The “ΔΔH1–2 (enthalpy penalty of 2 relative to 1)” value ([2]; EcGUS in Tris buffer) was “+6.2 kcal mol^−1”, the “–TΔΔS1–2 (2 relative to 1)” value ([2]; EcGUS in Tris buffer) was “–5.6 kcal mol^−1” and the “entropy contribution to binding” value ([2]; EcGUS in Tris buffer) was “+7.1 kcal mol^−1”. For the same molecule, the “ΔΔH1–2 (enthalpy penalty of 2 relative to 1)” value ([2]; EcGUS in phosphate buffer) was “+5.5 kcal mol^−1”, the “–TΔΔS1–2 (2 relative to 1)” value ([2]; EcGUS in phosphate buffer) was “–4.6 kcal mol^−1” and the “entropy contribution to binding” value ([2]; EcGUS in phosphate buffer) was “+5.0 kcal mol^−1”. The Kd [2, 5] was 0.06 ± 0.0049 µM, the ΔG [2, 5] was “–10.01 ± 0.58 kcal/mol” and the ΔH [2, 5] was “–2.90 ± 0.23 kcal/mol”. For the same molecule, the “—TΔS” value [2, 5] was “–7.11 ± 0.82 kcal/mol”, the Kd [2, 6] was 0.28 ± 0.05 µM and the ΔG [2, 6] was “–8.96 ± 0.09 kcal/mol”. The ΔH [2, 6] was “–3.99 ± 0.06 kcal/mol”, the “—TΔS” value [2, 6] was “–4.97 ± 0.15 kcal/mol” and the pKa [3] was 9.4.

For `CCCCCCCCC[C@@H]1NC[C@@H](O)[C@H](O)[C@H]1C(=O)O` [Inhibitor 4, C6-nonyl UIFG], the Ki [1] was 0.27 µM, the Ki [1, 4] was 0.27 ± 0.074 µM and the 1/v [1, 23] was 0.07099 and 0.06547 and 0.07752. For the same molecule, the “GUS activity (hydrolysis rate of MUG)” value [1, 23] was 17345 and 18805 and 15888, the 1/v [1, 24] was 0.08248 and 0.08036 and 0.08633 and the “GUS activity (hydrolysis rate of MUG)” value [1, 24] was 14936 and 15328 and 14270. For the same molecule, the 1/v [1, 25] was 0.1044 and 0.09961 and 0.1132, the “GUS activity (hydrolysis rate of MUG)” value [1, 25] was 11804 and 12374 and 10895 and the 1/v [1, 26] was 0.1278 and 0.1207 and 0.1294. The “GUS activity (hydrolysis rate of MUG)” value [1, 26] was 9649 and 10216 and 9535, the 1/v [1, 27] was 0.05896 and 0.0562 and 0.06114 and the “GUS activity (hydrolysis rate of MUG)” value [1, 27] was 20877 and 21902 and 20134. The 1/v [1, 28] was 0.07315 and 0.0639 and 0.07306, the “GUS activity (hydrolysis rate of MUG)” value [1, 28] was 16834 and 19266 and 16856 and the 1/v [1, 29] was 0.08853 and 0.08384 and 0.0916. For the same molecule, the “GUS activity (hydrolysis rate of MUG)” value [1, 29] was 13918 and 14693 and 13452, the 1/v [1, 30] was 0.113 and 0.1097 and 0.1193 and the “GUS activity (hydrolysis rate of MUG)” value [1, 30] was 10909 and 11240 and 10335. The 1/v [1, 31] was 0.04482 and 0.03964 and 0.04854, the “GUS activity (hydrolysis rate of MUG)” value [1, 31] was 27452 and 31030 and 25348 and the 1/v [1, 32] was 0.06247 and 0.0466 and 0.0623. For the same molecule, the “GUS activity (hydrolysis rate of MUG)” value [1, 32] was 19707 and 26401 and 19760, the 1/v [1, 33] was 0.07433 and 0.06177 and 0.07489 and the “GUS activity (hydrolysis rate of MUG)” value [1, 33] was 16569 and 19929 and 16445. The 1/v [1, 34] was 0.09796 and 0.08796 and 0.1041, the “GUS activity (hydrolysis rate of MUG)” value [1, 34] was 12581 and 14006 and 11837 and the 1/v [1, 35] was 0.03481 and 0.03381 and 0.03972. For the same molecule, the “GUS activity (hydrolysis rate of MUG)” value [1, 35] was 35328 and 36376 and 30969, the 1/v [1, 36] was 0.04379 and 0.03975 and 0.04826 and the “GUS activity (hydrolysis rate of MUG)” value [1, 36] was 28094 and 30946 and 25494. For the same molecule, the 1/v [1, 37] was 0.05918 and 0.05295 and 0.06497, the “GUS activity (hydrolysis rate of MUG)” value [1, 37] was 20799 and 23242 and 18949 and the 1/v [1, 38] was 0.08688 and 0.08016 and 0.09205. For the same molecule, the “GUS activity (hydrolysis rate of MUG)” value [1, 38] was 14180 and 15366 and 13387, the ΔH [2, 5] was “close to zero” and the “ΔΔH relative to 2 (ΔΔH2–3, ΔΔH2–4)” value ([2]; EcGUS, phosphate buffer) was “+0.99 kcal mol^−1”. The “–TΔΔS relative to 2 (–TΔΔS2–3, –TΔΔS2–4)” value ([2]; EcGUS, phosphate buffer) was -1.34 kcal/mol, the Kd [2, 6] was 0.16 ± 0.04 µM and the ΔG [2, 6] was “–9.30 ± 0.13 kcal/mol”. For the same molecule, the ΔH [2, 6] was “–3.00 ± 0.02 kcal/mol” and the “—TΔS” value [2, 6] was “–6.31 ± 0.15 kcal/mol”.
